In publication PMC12508063, “Chloroindazole based estrogen receptor β ligands with favorable pharmacokinetics promote functional remyelination and visual recovery” (Scientific Reports, 2025):
“And” between values parts separate entries of the source, which are not always exact repeats. Equal entries are not always repeated.

Legend:
ERβ = biological target: T1, ERβ (Homo sapiens, UniProt Q92731); assay: ER reporter gene assay in HEK 293 T cells (ER-luciferase reporter); type: cell-based; conditions: for Reporter gene assay raw data, ERb: ERb data block (head r19), 4 replicate columns; for ERb reporter gene assay raw data (response): four replicate columns per compound
T1 construct: expressed in transfected cells; host or cells: HEK 293 T cells
T1 sequence (Q92731 whole entry, species assumed): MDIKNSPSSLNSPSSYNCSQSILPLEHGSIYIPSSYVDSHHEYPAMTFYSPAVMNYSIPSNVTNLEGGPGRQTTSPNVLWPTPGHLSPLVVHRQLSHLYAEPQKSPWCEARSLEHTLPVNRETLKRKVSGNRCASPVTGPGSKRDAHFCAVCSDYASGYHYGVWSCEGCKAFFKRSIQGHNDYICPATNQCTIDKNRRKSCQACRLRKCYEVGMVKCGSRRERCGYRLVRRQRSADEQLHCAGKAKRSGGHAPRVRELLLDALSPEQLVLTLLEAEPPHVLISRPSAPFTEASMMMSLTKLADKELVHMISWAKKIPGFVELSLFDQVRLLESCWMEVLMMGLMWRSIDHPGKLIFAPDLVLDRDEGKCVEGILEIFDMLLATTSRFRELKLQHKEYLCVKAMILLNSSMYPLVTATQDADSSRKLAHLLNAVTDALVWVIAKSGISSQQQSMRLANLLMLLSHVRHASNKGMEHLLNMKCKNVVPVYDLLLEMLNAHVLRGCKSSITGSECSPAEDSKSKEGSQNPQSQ

ERα = biological target: T2, ERα (Homo sapiens, UniProt P03372); assay: as above; type: cell-based; conditions: for Reporter gene assay raw data, ERa: 4 replicate columns
T2 construct: expressed in transfected cells; host or cells: HEK 293 T cells
T2 sequence (P03372 1-595): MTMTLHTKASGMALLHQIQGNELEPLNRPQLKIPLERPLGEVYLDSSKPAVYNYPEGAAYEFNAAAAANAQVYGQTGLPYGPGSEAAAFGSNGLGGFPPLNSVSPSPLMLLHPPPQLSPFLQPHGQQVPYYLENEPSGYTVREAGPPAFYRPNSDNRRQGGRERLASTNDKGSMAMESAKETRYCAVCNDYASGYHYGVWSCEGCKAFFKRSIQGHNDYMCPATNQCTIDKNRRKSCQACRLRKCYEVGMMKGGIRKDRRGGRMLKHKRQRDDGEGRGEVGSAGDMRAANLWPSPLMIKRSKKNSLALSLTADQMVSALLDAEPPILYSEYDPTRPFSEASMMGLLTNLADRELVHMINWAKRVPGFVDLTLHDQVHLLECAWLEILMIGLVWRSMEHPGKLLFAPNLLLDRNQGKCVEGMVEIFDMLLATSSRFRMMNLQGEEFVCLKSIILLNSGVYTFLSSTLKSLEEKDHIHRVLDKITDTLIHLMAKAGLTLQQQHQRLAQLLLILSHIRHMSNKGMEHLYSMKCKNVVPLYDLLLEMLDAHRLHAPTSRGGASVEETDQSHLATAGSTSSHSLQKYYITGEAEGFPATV

Reporter gene assay raw data, ERb (ERβ; Log M -10.7721): 2.426 and 2.349 and 4.55 and 3.395 | ERb reporter gene assay raw data (response) (ERβ; Log M -10.7721): 3.239 and 2.8663 and 1.689 and 3.053 | Reporter gene assay raw data, ERb (ERβ; Log M -11.248): 1.344 and 1.212 and 1.016 and 0.8144 | ERb reporter gene assay raw data (response) (ERβ; Log M -11.248): 2.211 and 0.8495 and 0.02026 and 1.717 | Reporter gene assay raw data, ERa (ERα; Log M -9.34008, first ERa data block (head r2)): 7.216 and 7.17 and 5.351 and 7.624 | Reporter gene assay raw data, ERa (ERα; Log M -9.34008, second ERa data block (head r34)): 6.164 and 5.9134 and 5.736 and 5.474 | Reporter gene assay raw data, ERa (ERα; Log M -9.81816, first ERa data block (head r2)): 1.823 and 1.931 and 1.019 and 2.136 | Reporter gene assay raw data, ERa (ERα; Log M -9.81816, second ERa data block (head r34)): 0.6247 and 1.953 and 0.3211 and 0.779 | Reporter gene assay raw data, ERa (ERα; Log M -10.2941, first ERa data block (head r2)): 1.733 and 1.446 and -0.6404 and -0.6096 | Reporter gene assay raw data, ERa (ERα; Log M -10.2941, second ERa data block (head r34)): -0.6765 and 0.406 and -1.087 and 0.2814 | Reporter gene assay raw data, ERa (ERα; Log M -10.7721, second ERa data block (head r34)): -1.593 and -1.3667 and -0.9474 and 0.114 | Reporter gene assay raw data, ERa (ERα; Log M -11.248, first ERa data block (head r2)): -1.205 and 0.7176 and 0.3903 and 0.3615 | ERa reporter gene assay raw data (response) (ERα; Log M -13, four replicate columns per compound): 0.8253 and -0.8253 and 1.478 and -1.478
Structure (SMILES): Oc1ccc(-n2nc3ccc(O)cc3c2Cl)cc1 [Compound K-101]
Reporter gene assay raw data, ERb (ERβ; Log M -6): 120.988 and 116.157 and 143.98 and 147.219 | ERb reporter gene assay raw data (response) (ERβ; Log M -6): 111.44 and 122.263 and 112.615 and 103.371 | Reporter gene assay raw data, ERb (ERβ; Log M -6.47756): 114.841 and 114.867 and 137.295 and 151.298 | ERb reporter gene assay raw data (response) (ERβ; Log M -6.47756): 99.9004 and 104.917 and 98.5023 and 107.756 | Reporter gene assay raw data, ERb (ERβ; Log M -6.95468): 124.443 and 116.848 and 139.382 and 142.558 | ERb reporter gene assay raw data (response) (ERβ; Log M -6.95468): 103.919 and 109.742 and 107.029 and 112.5 | Reporter gene assay raw data, ERb (ERβ; Log M -7.4318): 110.594 and 113.713 and 119.524 and 142.929 | ERb reporter gene assay raw data (response) (ERβ; Log M -7.4318): 106.837 and 108.962 and 105.441 and 101.954 | Reporter gene assay raw data, ERb (ERβ; Log M -7.91009): 112.17 and 111.487 and 138.169 and 129.452 | ERb reporter gene assay raw data (response) (ERβ; Log M -7.91009): 109.149 and 102.176 and 94.3567 and 106.552 | Reporter gene assay raw data, ERb (ERβ; Log M -8.3851): 117.284 and 114.634 and 116.673 and 134.281 | ERb reporter gene assay raw data (response) (ERβ; Log M -8.3851): 104.39 and 105.189 and 99.3517 and 108.832 | Reporter gene assay raw data, ERb (ERβ; Log M -8.86328): 116.233 and 118.325 and 116.611 and 129.233 | ERb reporter gene assay raw data (response) (ERβ; Log M -8.86328): 100.866 and 91.0385 and 99.5048 and 94.2764 | Reporter gene assay raw data, ERb (ERβ; Log M -9.34008): 83.1588 and 87.5707 and 97.8302 and 99.1529 | ERb reporter gene assay raw data (response) (ERβ; Log M -9.34008): 78.6235 and 76.3041 and 74.4798 and 84.9468 | Reporter gene assay raw data, ERb (ERβ; Log M -9.81816): 46.3463 and 45.2097 and 53.3712 and 57.2512 | ERb reporter gene assay raw data (response) (ERβ; Log M -9.81816): 51.4383 and 42.8216 and 46.1589 and 42.3832 | Reporter gene assay raw data, ERb (ERβ; Log M -10.2941): 13.5511 and 13.5131 and 21.4772 and 19.6971 | ERb reporter gene assay raw data (response) (ERβ; Log M -10.2941): 11.6805 and 12.8501 and 11.4455 and 13.5515 | ERb reporter gene assay raw data (response) (ERβ; Log M -13): 0.5566 and -0.5566 and 0.8119 and -0.8119 | Reporter gene assay raw data, ERa (ERα; Log M -6, first ERa data block (head r2)): 104.545 and 98.5711 and 90.2001 and 86.8078 | Reporter gene assay raw data, ERa (ERα; Log M -6, second ERa data block (head r34)): 95.025 and 94.1762 and 88.9253 and 94.8982 | Reporter gene assay raw data, ERa (ERα; Log M -6.47756, first ERa data block (head r2)): 85.5888 and 84.856 and 83.9539 and 86.1821 | Reporter gene assay raw data, ERa (ERα; Log M -6.47756, second ERa data block (head r34)): 88.8265 and 82.9979 and 83.8682 and 89.3798 | Reporter gene assay raw data, ERa (ERα; Log M -6.95468, first ERa data block (head r2)): 74.2269 and 77.1348 and 79.6996 and 75.9439 | Reporter gene assay raw data, ERa (ERα; Log M -6.95468, second ERa data block (head r34)): 78.2124 and 79.7922 and 76.8721 and 73.4179 | Reporter gene assay raw data, ERa (ERα; Log M -7.4318, first ERa data block (head r2)): 58.4425 and 53.4049 and 54.6387 and 66.4913 | Reporter gene assay raw data, ERa (ERα; Log M -7.4318, second ERa data block (head r34)): 66.1364 and 63.6537 and 63.2155 and 63.5605 | Reporter gene assay raw data, ERa (ERα; Log M -7.91009, first ERa data block (head r2)): 54.5242 and 53.4131 and 49.5391 and 50.4679 | Reporter gene assay raw data, ERa (ERα; Log M -7.91009, second ERa data block (head r34)): 55.1309 and 61.6988 and 46.1658 and 50.4053 | Reporter gene assay raw data, ERa (ERα; Log M -8.3851, first ERa data block (head r2)): 36.2798 and 37.8765 and 41.0912 and 38.4728 | Reporter gene assay raw data, ERa (ERα; Log M -8.3851, second ERa data block (head r34)): 40.2636 and 45.8507 and 39.6541 and 35.9505 | Reporter gene assay raw data, ERa (ERα; Log M -8.86328, first ERa data block (head r2)): 20.0299 and 22.3737 and 21.1668 and 19.8353 | Reporter gene assay raw data, ERa (ERα; Log M -8.86328, second ERa data block (head r34)): 25.3166 and 18.7166 and 21.7026 and 19.2485 | Reporter gene assay raw data, ERa (ERα; Log M -10.7721, first ERa data block (head r2)): -0.886 and -0.01848 and -1.926 and -0.988 | Reporter gene assay raw data, ERa (ERα; Log M -11.248, second ERa data block (head r34)): -1.908 and -0.2669 and 0.1993 and -0.8382
